Legend:
ileal strips = test: Gastrointestinal motility stimulation test (ileal strip, electric transmural stimulation); parameters: species or system male Hartley guinea pigs; details: Cavia porcellus; for activation at 1 µg/mL: read-out: Amplification Degree (Electric Transmural Stimulation), 10^-6 g/ml; for activation at 10 µg/mL: read-out: Amplification Degree (Electric Transmural Stimulation), 10^-5 g/ml
Procedure: From male Hartley guinea pigs weighing 250-400 g, ileal strips, 2-3 cm long, were isolated. The ileal strip was suspended in a Tyrode's solution bath (30 ml) while supplying a mixture gas of 95% O2 -5% CO2 and maintained at 37±1° C. and using an isotonic transducer the longitudinal contractions of the strip were recorded. Supramaximal electric transmural stimulation of 1-millisecond duration was given at 10-second intervals. Each test compound was dissolved or suspended in physiological saline and added into the organ bath. The effect of each test compound on electric transmural stimulation was calculated from the amplitude of contractions (A) before administration and the amplitude of contractions (B) after administration using the following equation. [formula]

male dd mice = test: Acute toxicity test (minimum lethal dose, MLD); assay type: in vivo; details: p.o., 7 days
Procedure: Using male dd mice weighing 20±1 g in groups of 3, each test compound was orally administered (300 mg/kg, p.o.).

histamine H2 -receptor [1] = details: known; cited from earlier work
gastrointestinal tract = details: Scand. J. Gastroenterol., 21 (Suppl. 121), 30 (1986); cited from earlier work
histamine H2 -receptor [2] = test: antihistaminic (histamine H2 -receptor blocking) activity; details: no method given

SMILES | activation at 1 µg/mL (ileal strips) [%] | Acute Toxicity (MLD) (male dd mice) [mg/kg] | activation at 10 µg/mL (ileal strips) [%] | histamine H2 -receptor blocking activity (histamine H2 -receptor [1]) | activity to stimulate motility of the gastrointestinal tract (gastrointestinal tract) | antihistaminic activity (histamine H2 -receptor [2])
N#CC(C#N)=C1NCCN1CCNCc1ccc(CN2CCSCC2)o1 [Compound 38] | 34.5 | > 300 |  |  |  | 
CN(CCN1CCNC1=C(C#N)C#N)Cc1ccc(CN2CCCCC2)o1 [Compound 45, [1-[2-[N-(Methyl)-N-[(5-piperidinomethyl-2-furanyl)methyl]amino]ethyl]-2-imidazolidinylidene]-propanedinitrile] | 43.8 | > 300 | 72.1 |  |  | 
CNC(NCCCNCc1ccc(CN(C)C)o1)=C(C#N)C#N [Compound 6, [[3-[(5-Dimethylaminomethyl-2-furanyl)methylamino]propylamino](methylamino)methylene]propanedinitrile] |  | > 300 | 34 |  |  | 
CNC(NCCNCc1ccc(CN(C(C)C)C(C)C)o1)=C(C#N)C#N [Compound 12, [[2-[(5-Diisopropylaminomethyl-2-furanyl)methylamino]ethyl]amino(methylamino)methylene]propanedinitrile] | 34.3 | > 300 | 55.8 |  |  | 
N#CC(C#N)=C1NCCN1CCNCc1ccc(CN2CCCC2)o1 [Compound 27, [1-[2-[(5-Pyrrolidinylmethyl-2-furanyl)methylamino]ethyl]-2-imidazolidinylidene]propanedinitrile] | 12 | > 300 |  |  |  | 
CNC(NCCNC(=O)c1ccc(CN(C)C)o1)=C(C#N)C#N [Compound 10, 5-(Dimethylaminomethyl)-N-[2-(1-methylamino-2,2-dicyanovinylamino)ethyl]-2-furancarboxamide] | 15.3 | > 300 | 36.4 |  |  | 
N#CC(C#N)=C1NCCN1CCNCc1ccc(CN2CCCCCC2)o1 [Compound 29, [1-[2-[(5-Perhydroazepinylmethyl-2-furanyl)methylamino]ethyl]-2-imidazolidinylidene]propanedinitrile] | 68 | 200 |  |  |  | 
CCN(C)Cc1ccc(CNCCN2CCNC2=C(C#N)C#N)o1 [Compound 25, [1-[2-[(5-Ethylmethylaminomethyl-2-furanyl)methylamino]ethyl]-2-imidazolidinylidene]propanedinitrile] | 63.5 | > 300 |  |  |  | 
N#CC(C#N)=C1NCCN1CCNCc1ccc(CN2CCCCC2)o1 [Compound 28, [1-[2-[(5-Piperidinomethyl-2-furanyl)methylamino]ethyl]-2-imidazolidinylidene]propanedinitrile] |  | 100 |  |  |  | 
CNC(NCCNCc1ccc(CN2CCCC2)o1)=C(C#N)C#N [Compound 13, [[2-[(5-Pyrrolidinylmethyl-2-furanyl)methylamino]ethyl](methylamino)methylene]propanedinitrile] | 34.5 | > 300 | 70.8 |  |  | 
CNC(=C[N+](=O)[O-])NCCSCc1ccc(CN(C)C)o1 [Ranitidine, reference compound] | 35 | > 300 | 42.2 | having histamine H2 -receptor blocking activity | weak | found
CNC(NCCNCc1ccc(CN2CCCCC2)o1)=C(C#N)C#N [Compound 14, [[2-[(5-Piperidinomethyl-2-furanyl)methylamino]ethyl](methylamino)methylene]propanedinitrile] | 37.3 | > 300 | 79.3 |  |  | 
CN(C)Cc1ccc(CNCCN2CCNC2=C(C#N)C#N)o1 [Compound 22, [1-[2-[(5-Dimethylaminomethyl-2-furanyl)methylamino]ethyl]-2-imidazolidinylidene]propanedinitrile] | 56 | > 300 |  |  |  | 
CNC(NCCNCc1ccc(CN(C)C)o1)=C(C#N)C#N [Compound 2, [[2-[(5-Dimethylaminomethyl-2-furanyl)methylamino]ethyl]amino(methylamino)methylene]propanedinitrile] | 31 | > 300 | 80.5 |  |  | 
CNC(=C[N+](=O)[O-])NCCNCc1ccc(CN(C)C)o1 [Compound 1, N-[2-[(5-Dimethylaminomethyl-2-furanyl)methylamino]ethyl]-N'-methyl-2-nitroethene-1,1-diamine] |  | > 300 | 30 |  |  | 
CNc1c(NCCNCc2ccc(CN3CCCCC3)o2)c(=O)c1=O [Compound 17, 1-Methylamino-2-[[2-[(5-piperidinomethyl-2-furanyl)methylamino]ethyl]amino]cyclobutene-3,4-dione] | 19.5 | > 300 | 75 |  |  | 
CCN(CC)CCNC(=O)c1cc(Cl)c(N)cc1OC [Metoclopramide, reference compound] | 18 | 200 | 33.4 |  |  | 
CC1CCN(Cc2ccc(CNCCN3CCNC3=C(C#N)C#N)o2)CC1 [Compound 32, [1-[2-[[5-(4-Methylpiperidinomethyl)-2-furanyl]methylamino]ethyl]-2-imidazolidinylidene]propanedinitrile] | 52 | > 300 |  |  |  | 
COC1CCCN(Cc2ccc(CNCCN3CCNC3=C(C#N)C#N)o2)C1 (centres unmarked) [Compound 34, [1-[2-[[5-(3-Methoxypiperidinomethyl)-2-furanyl]methylamino]ethyl]-2-imidazolidinylidene]propanedinitrile] | 23 | > 300 | 81.3 |  |  | 

From US5075301A, “Furan derivatives useful for the treatment of gastro-intestinal disorders” (Kyowa Hakko Kogyo, Co., Ltd., priority 1989, dated 1991)
